Experimental data reported in PubChem BioAssay AID1919016 (Molecular Pharmacology Branch, DTP, NCI, 2023).
pIC50: −log10 of the molar value. Values joined by “and” are separate entries in the source; they are usually repeats but may differ in a detail not shown here. Identical values can stand only once.

Tested on: NCI-H196 complex spheroid growth, percent test/control
Experiment: Anticancer human tumor NCI-H196 cell line growth inhibition [AhR];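 also: seven days of drug exposure starting three days after plating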;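 as to viability, T/C: 100% = DMSO vehicle control wells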
Conditions: for viability, T/C: stronger effect = lower value
Procedure, shortened: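 Complex tumor spheroids co-cultured with HUVEC and human MSC stroma; AhR antagonists tested in combination with standard-of-care and investigational agents. Top concentration at or near clinical Cmax (else 10 microM), half-log dilutions; growth expressed as percent test/control.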

[1] = curve of first compound, second compound 0.1 µM
[2] = curve of first compound, second compound 0.316 µM
[3] = curve of first compound, second compound 1 µM
[4] = curve of first compound, second compound 3.16 µM
[5] = curve of first compound, second compound 10 µM

Q: For CC1COCCN1c1cc(C2(S(C)(=N)=O)CC2)nc(-c2ccnc3[nH]ccc23)n1 (centres undefined), which viability, T/C (compound 0.0316 µM) is on record?
A: 99.9% and 98.5% and 104%

Q: What about the viability, T/C (compound 0.1 µM) of the same compound?
A: 100% and 104% and 96%

Q: And the viability, T/C (compound 0.316 µM)?
A: 104% (2×) and 95.2%

Q: And the viability, T/C (compound 1 µM)?
A: 88% and 95.2% and 97.4%

Q: And the viability, T/C (compound 3.16 µM)?
A: 97.7% and 93.7% and 85%

Q: What about the viability, T/C (compound 10 µM) of the same compound?
A: 69.4% and 81% and 77.6%

Q: And the pIC50 (curve of compound)?
A: < 5.00

Q: Which results are given for COc1ccc([C@@H](O)c2cc(-c3ncnc4cc(N5CCOCC5)ccc34)c(F)cc2Cl)nn1 + CC(CO)NC(=O)c1cc(-c2ccc(Cl)cc2)nn(-c2cnn(C)c2)c1=O?
A: pIC50 [1]: < 5.00; pIC50 [2]: < 5.00; pIC50 [3]: < 5.00; pIC50 [4]: < 5.00; pIC50 [5]: < 5.00; viability, T/C (second compound 0.1 µM, first compound 0.0316 µM): 102%; viability, T/C (second compound 0.1 µM, first compound 0.1 µM): 91.2%; viability, T/C (second compound 0.1 µM, first compound 0.316 µM): 94.5%; viability, T/C (second compound 0.1 µM, first compound 1 µM): 80.3%; viability, T/C (second compound 0.1 µM, first compound 3.16 µM): 75.6%; viability, T/C (second compound 0.1 µM, first compound 10 µM): 82.4%; viability, T/C (second compound 0.316 µM, first compound 0.0316 µM): 109%; viability, T/C (second compound 0.316 µM, first compound 0.1 µM): 100%; viability, T/C (second compound 0.316 µM, first compound 0.316 µM): 94.9%; viability, T/C (second compound 0.316 µM, first compound 1 µM): 83.3%; viability, T/C (second compound 0.316 µM, first compound 3.16 µM): 80.2%; viability, T/C (second compound 0.316 µM, first compound 10 µM): 75.8%; viability, T/C (second compound 1 µM, first compound 0.0316 µM): 107%; viability, T/C (second compound 1 µM, first compound 0.1 µM): 106%; viability, T/C (second compound 1 µM, first compound 0.316 µM): 102%; viability, T/C (second compound 1 µM, first compound 1 µM): 89.3%; viability, T/C (second compound 1 µM, first compound 3.16 µM): 77%; viability, T/C (second compound 1 µM, first compound 10 µM): 72.8%; viability, T/C (second compound 3.16 µM, first compound 0.0316 µM): 108%; viability, T/C (second compound 3.16 µM, first compound 0.1 µM): 113%; viability, T/C (second compound 3.16 µM, first compound 0.316 µM): 114%; viability, T/C (second compound 3.16 µM, first compound 1 µM): 96.1%; viability, T/C (second compound 3.16 µM, first compound 3.16 µM): 84.1%; viability, T/C (second compound 3.16 µM, first compound 10 µM): 78.7%; viability, T/C (second compound 10 µM, first compound 0.0316 µM): 115%; viability, T/C (second compound 10 µM, first compound 0.1 µM): 104%; viability, T/C (second compound 10 µM, first compound 0.316 µM): 95.4%; viability, T/C (second compound 10 µM, first compound 1 µM): 84.5%; viability, T/C (second compound 10 µM, first compound 3.16 µM): 75.8%; viability, T/C (second compound 10 µM, first compound 10 µM): 72.3%

Q: What does the source list for COc1ccc([C@@H](O)c2cc(-c3ncnc4cc(N5CCOCC5)ccc34)c(F)cc2Cl)nn1?
A: viability, T/C (compound 0.0316 µM): 100% and 96% and 105%; viability, T/C (compound 0.1 µM): 97.1% and 92.7% and 93.5%; viability, T/C (compound 0.316 µM): 97% and 91.1% and 94.3%; viability, T/C (compound 1 µM): 89.2% and 84.2% and 89.9%; viability, T/C (compound 3.16 µM): 85.3% and 81.3% and 89.7%; viability, T/C (compound 10 µM): 77.3% and 69% and 71.9%; pIC50 (curve of compound): < 5.00

Q: Which results are given for CCc1c2c(nc3ccc(O)cc13)-c1cc3c(c(=O)n1C2)COC(=O)[C@]3(O)CC + CC(CO)NC(=O)c1cc(-c2ccc(Cl)cc2)nn(-c2cnn(C)c2)c1=O?
A: pIC50 [1]: < 6.52; pIC50 [2]: < 6.52; pIC50 [3]: < 6.52; pIC50 [4]: < 6.52; pIC50 [5]: < 6.52; viability, T/C (second compound 0.1 µM, first compound 0.000949 µM): 98%; viability, T/C (second compound 0.1 µM, first compound 0.003 µM): 104%; viability, T/C (second compound 0.1 µM, first compound 0.00949 µM): 107%; viability, T/C (second compound 0.1 µM, first compound 0.03 µM): 105%; viability, T/C (second compound 0.1 µM, first compound 0.0949 µM): 103%; viability, T/C (second compound 0.1 µM, first compound 0.3 µM): 92.9%; viability, T/C (second compound 0.316 µM, first compound 0.000949 µM): 108%; viability, T/C (second compound 0.316 µM, first compound 0.003 µM): 116%; viability, T/C (second compound 0.316 µM, first compound 0.00949 µM): 113%; viability, T/C (second compound 0.316 µM, first compound 0.03 µM): 113%; viability, T/C (second compound 0.316 µM, first compound 0.0949 µM): 108%; viability, T/C (second compound 0.316 µM, first compound 0.3 µM): 92.2%; viability, T/C (second compound 1 µM, first compound 0.000949 µM): 108%; viability, T/C (second compound 1 µM, first compound 0.003 µM): 115%; viability, T/C (second compound 1 µM, first compound 0.00949 µM): 117%; viability, T/C (second compound 1 µM, first compound 0.03 µM): 98.4%; viability, T/C (second compound 1 µM, first compound 0.0949 µM): 101%; viability, T/C (second compound 1 µM, first compound 0.3 µM): 81.8%; viability, T/C (second compound 3.16 µM, first compound 0.000949 µM): 112%; viability, T/C (second compound 3.16 µM, first compound 0.003 µM): 110%; viability, T/C (second compound 3.16 µM, first compound 0.00949 µM): 105%; viability, T/C (second compound 3.16 µM, first compound 0.03 µM): 104%; viability, T/C (second compound 3.16 µM, first compound 0.0949 µM): 101%; viability, T/C (second compound 3.16 µM, first compound 0.3 µM): 85.3%; viability, T/C (second compound 10 µM, first compound 0.000949 µM): 111%; viability, T/C (second compound 10 µM, first compound 0.003 µM): 111%; viability, T/C (second compound 10 µM, first compound 0.00949 µM): 112%; viability, T/C (second compound 10 µM, first compound 0.03 µM): 107%; viability, T/C (second compound 10 µM, first compound 0.0949 µM): 107%; viability, T/C (second compound 10 µM, first compound 0.3 µM): 87.7%
